The values below come from patent US8772299B2, “Phenyl piperazine compounds, pharmaceutical composition including the same and use thereof” (SK Biopharmaceuticals Co., Ltd., priority 2008, dated 2014).

What is called inhibition is how much of the control response was suppressed. What is called inhibition in vivo is the drop in the measured response relative to a control, in per cent. A high value points to a strong effect.

In assay [1] the target is T1, Serotonin 1A (5-HT1A) receptor (Rattus norvegicus, UniProt P19327).
T1 construct: The cortex tissue were homogenized in 30 volumes of ice-cold 50 mM Tris-HCl buffer; from tissue; host or cells: Sprague-Dawley rat brain cortex membranes
T1 sequence (P19327 1-422): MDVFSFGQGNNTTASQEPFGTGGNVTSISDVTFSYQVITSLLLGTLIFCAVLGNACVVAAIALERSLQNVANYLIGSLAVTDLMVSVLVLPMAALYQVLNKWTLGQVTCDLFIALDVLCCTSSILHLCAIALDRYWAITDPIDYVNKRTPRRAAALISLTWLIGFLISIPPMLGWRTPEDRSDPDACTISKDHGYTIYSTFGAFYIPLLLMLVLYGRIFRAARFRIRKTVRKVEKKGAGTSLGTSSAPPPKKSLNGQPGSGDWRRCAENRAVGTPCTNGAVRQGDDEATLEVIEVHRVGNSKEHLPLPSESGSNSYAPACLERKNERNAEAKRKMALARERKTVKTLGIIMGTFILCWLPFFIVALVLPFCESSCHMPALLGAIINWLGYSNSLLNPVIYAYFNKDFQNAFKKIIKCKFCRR
The assay is described as follows: Serotonin 1A (5-HT1A) receptor inhibition assay, [3H]8-OH-DPAT binding to rat cortex membranes. Conditions: 10 nM test compound; 0.92 nM [3H]8-OH-DPAT; rat cortex homogenate; 60 min at 25° C. On the set-up: species or system Sprague-Dawley (SD) rats. As for the experimental part: The method to test the ability of compounds to inhibit serotonin 1A(5-HT1A) receptors was using Hall. et al., J Neuro Chem., 1985, 44, p 1685-1696 with modification.
The Sprague-Dawley (SD) rats were killed by decapitation and their brains rapidly removed at 4° C. The cortex tissue were homogenized in 30 volumes of ice-cold 50 mM Tris-HCl buffer (pH7.4) using an ultra-turrax T8 and centrifuged at 48,000 g for 20 min. The supernatant was discarded and the pellet washed twice by resuspension in 20 volumes Tris-HCl and centrifugation, homogenized in 20 volumes Tris-HCl, and incubated at 37° C. for 10 min. Membranes were than collected by centrifugation and washed twice before final resuspension in 10 volumes of 50 mM Tris-HCl, pH7.4.
For binding assays, the incubation medium consisted of 162.5 ug of tissue homogenate, 0.92 nM of [3H]8-OH-DPAT and vehicle or 10 uM of 5-HT or 10 nM of test compounds per well. 5-HT and test compounds were dissolved in distilled water and incubation medium was 50 mM Tris(pH7.4 at room temperature). The assay plates (96 well) were incubated for 60 min at 25° C. The reaction was terminated by rapid filtration using a Tomtec harvester, through GF/C glassfibre filter with 5 times washes of Tris buffer. The radioactivity retained on the filters was counted by scintillation spectroscopy (MicroBeta TriLux, Wallac). The tests were triplicates. Percent inhibition was calculated as below equation.
Total binding is the value of vehicle treated group and specific binding is the values that deduct non-specific binding (i.e. the value of non-specific ligand, 5-HT).

Assay [2] concerns mice. As to the kind of experiment: Tail Suspension Test in Mice (TST). The format is in vivo. To be noted: Mus musculus, reduction in immobility vs control group, 1 mg/kg, po. From the text:
Tail Suspension Test in mice is the well-known animal model to determine antidepressant efficacy of compounds by checking escaping behavior and immobility time of mice. Mice treated with antidepressant drug show escaping behavior continuously comparing with control group.
The mice were mainly treated orally with the test compound dissolved in 30% PEG400 or with only 30% PEG400 as control. Tail of mouse is suspended to the rod of TST equipment and end of tail is fixed with sticky tape. Suspended mouse is incubated during 2 min for training and adaptation and after following 2 min, observe escaping behavior and check immobility time for 4 min. The potent ability of the compounds was determined as percent value of reduction in immobility comparing to control group as 100% baseline.

Assay [3] has as its system mice. The assay is described as follows: Anti-Marble Burying Behavior Test in Mice. It is filed as in vivo. Conditions: Mus musculus, reduction in number of marbles buried, ip. From the text:
Marble burying was developed and validated as a pre-clinical assay of potential anxiolytic activity (Andrews and Broekkamp (1993). Procedures to Identify Anxiolytic or Anxiogenic agents. In Behavioural Neuroscience, ed. A Sahgal, pp. 37-54. IRL Press, Oxford). The marble burying test places a naive mouse into a novel environment containing 25 marbles (arranged on top of a sawdust surface). A reduction in the number of marbles buried by the mouse was hypothesized to be an anxiolytic-like effect.

In assay [1], `COc1ccccc1N1CCN(CCCCOc2ccc(CCn3cncn3)cc2)CC1` [Example 48, 1-(2-methoxy-phenyl)-4-{4-[4-(2-[1,2,4]triazol-1-yl-ethyl)-phenoxy]-butyl}-piperazine] gave an inhibition at 0.01 µM of 48%. This compound also displayed an inhibition in vivo at 1 mg/kg in assay [2] of 26.2%. Moreover, the inhibition in vivo at 3 mg/kg in assay [3] (3 mg/kg) came to 31.3%.
As to `COc1ccccc1N1CCN(CCCCOc2ccc(CCn3ccnn3)cc2)CC1` [Example 50, 1-(2-methoxy-phenyl)-4-{4-[4-(2-[1,2,3]triazol-1-yl-ethyl)-phenoxy]-butyl}-piperazine], in assay [1], the inhibition at 0.01 µM worked out at 51%. The compound also displayed an inhibition in vivo at 1 mg/kg in assay [2] of 46.9%. For the same compound, testing at 7.5 mg/kg in assay [3] gave an inhibition in vivo of 96.8%.
Take `COc1ccccc1N1CCN(CCCCOc2ccc(CCn3ncnn3)cc2)CC1` [Example 51, 1-(2-methoxy-phenyl)-4-{4-[4-(2-tetrazol-2-yl-ethyl)-phenoxy]-butyl}-piperazine]: in assay [1], 0.01 µM produced 47% inhibition. In addition, testing at 1 mg/kg in assay [2] gave an inhibition in vivo of 14.7%. Moreover, 7.5 mg/kg produced 44.4% inhibition in vivo in assay [3].
